Test results: PubChem BioAssay AID1963427 (Molecular Pharmacology Branch, DTP, NCI, 2024)

System: 317291-083-R-J1-PDC complex spheroid growth
Assay: Anticancer human tumor 317291-083-R-J1-PDC patient-derived soft tissue sarcoma cell line growth inhibition [Asc]
Conditions: for IC50: curve of first compound; for viability, T/C: stronger effect = lower value; active = viability on the fitted dose curve at most 10% of control; inactive = the rest
Summary of the method: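 Concentration series start at each agent's clinical Cmax, or at 10 microM when none is established, and drop in half-log steps; agents are applied alone or together to complex spheroids built with HUVEC and hMSC.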

[1] = second compound 0.0316 µM, first compound 0.0316 µM
[2] = second compound 0.0316 µM, first compound 0.1 µM
[3] = second compound 0.1 µM, first compound 0.0316 µM
[4] = second compound 0.1 µM, first compound 0.1 µM
[5] = second compound 0.316 µM, first compound 0.0316 µM
[6] = second compound 0.316 µM, first compound 0.1 µM
[7] = second compound 1 µM, first compound 0.0316 µM
[8] = second compound 1 µM, first compound 0.1 µM
[9] = second compound 3.16 µM, first compound 0.0316 µM
[10] = second compound 3.16 µM, first compound 0.1 µM
[11] = second compound 10 µM, first compound 0.0316 µM
[12] = second compound 10 µM, first compound 0.1 µM
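Also: compound exposure lasted seven days after spheroids formed for three days.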
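For viability, T/C in this document: 100% = DMSO vehicle control wells.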

Cc1nc(N2CCC3(CC2)COC(C)C3N)c(CO)nc1Sc1ccnc(N)c1Cl (stereo unspecified) + CNC(C)C(=O)NC1CN(S(=O)(=O)c2cccc(S(=O)(=O)N3CCC4CCC(C(=O)NC(c5ccccc5)c5ccccc5)N4C(=O)C(NC(=O)C(C)NC)C3)c2)CCC2CCC(C(=O)NC(c3ccccc3)c3ccccc3)N2C1=O
89.3 nM: IC50 (second compound 0.1 µM)
< 9.49 nM: IC50 (second compound 0.316 µM) | IC50 (second compound 1 µM)
inactive: viability, T/C (second compound 0.00316 µM, first compound 0.00949 µM) 93.4% | viability, T/C (second compound 0.00316 µM, first compound 0.03 µM) 70.8% | viability, T/C (second compound 0.00316 µM, first compound 0.0949 µM) 80.5% | viability, T/C (second compound 0.00316 µM, first compound 0.3 µM) 66.7% | viability, T/C (second compound 0.00316 µM, first compound 0.949 µM) 70.2% | viability, T/C (second compound 0.00316 µM, first compound 3 µM) 41.9% | viability, T/C (second compound 0.01 µM, first compound 0.00949 µM) 75.5% | viability, T/C (second compound 0.01 µM, first compound 0.03 µM) 90.1% | viability, T/C (second compound 0.01 µM, first compound 0.0949 µM) 67.8% | viability, T/C (second compound 0.01 µM, first compound 0.3 µM) 70% | viability, T/C (second compound 0.01 µM, first compound 0.949 µM) 52.2% | viability, T/C (second compound 0.01 µM, first compound 3 µM) 36.2% | viability, T/C (second compound 0.0316 µM, first compound 0.00949 µM) 65.2% | viability, T/C (second compound 0.0316 µM, first compound 0.03 µM) 72.8% | viability, T/C (second compound 0.0316 µM, first compound 0.0949 µM) 71.3% | viability, T/C (second compound 0.0316 µM, first compound 0.3 µM) 63.8% | viability, T/C (second compound 0.0316 µM, first compound 0.949 µM) 53.2% | viability, T/C (second compound 0.0316 µM, first compound 3 µM) 47.2% | viability, T/C (second compound 0.1 µM, first compound 0.00949 µM) 70.3% | viability, T/C (second compound 0.1 µM, first compound 0.03 µM) 51.2% | viability, T/C (second compound 0.1 µM, first compound 0.0949 µM) 54.1% | viability, T/C (second compound 0.1 µM, first compound 0.3 µM) 39.8% | viability, T/C (second compound 0.1 µM, first compound 0.949 µM) 39.9% | viability, T/C (second compound 0.1 µM, first compound 3 µM) 27.6% | viability, T/C (second compound 0.316 µM, first compound 0.00949 µM) 43.5% | viability, T/C (second compound 0.316 µM, first compound 0.03 µM) 39.8% | viability, T/C (second compound 0.316 µM, first compound 0.0949 µM) 38.1% | viability, T/C (second compound 0.316 µM, first compound 0.3 µM) 37.7% | viability, T/C (second compound 0.316 µM, first compound 0.949 µM) 32.4% | viability, T/C (second compound 0.316 µM, first compound 3 µM) 22.8% | viability, T/C (second compound 1 µM, first compound 0.00949 µM) 29.8% | viability, T/C (second compound 1 µM, first compound 0.03 µM) 22.5% | viability, T/C (second compound 1 µM, first compound 0.0949 µM) 29.8% | viability, T/C (second compound 1 µM, first compound 0.3 µM) 23.1% | viability, T/C (second compound 1 µM, first compound 0.949 µM) 18.5% | viability, T/C (second compound 1 µM, first compound 3 µM) 19.3%
1960 nM: IC50 (second compound 0.0316 µM)
1150 nM: IC50 (second compound 0.01 µM)
2210 nM: IC50 (second compound 0.00316 µM)

Cn1ncnc1[C@H]1c2n[nH]c(=O)c3cc(F)cc(c23)N[C@@H]1c1ccc(F)cc1 + Cc1c(S(C)(=O)=O)c(-c2cc(F)cc(N3CCN(c4ccc(NS(=O)(=O)c5ccc(NC(CCN6CCC(C(=O)OCCCP(=O)(O)O)CC6)CSc6ccccc6)c(S(=O)(=O)C(F)(F)F)c5)cc4)CC3)c2)c(-c2ccc(Cl)cc2)n1C(C)C
inactive: viability, T/C (second compound 0.0316 µM, first compound 0.000316 µM) 93.2% | viability, T/C (second compound 0.0316 µM, first compound 0.001 µM) 91.5% | viability, T/C (second compound 0.0316 µM, first compound 0.00316 µM) 78.4% | viability, T/C (second compound 0.0316 µM, first compound 0.01 µM) 85.6% | viability, T/C [1] 67.1% | viability, T/C [2] 56.6% | viability, T/C (second compound 0.1 µM, first compound 0.000316 µM) 91% | viability, T/C (second compound 0.1 µM, first compound 0.001 µM) 90.8% | viability, T/C (second compound 0.1 µM, first compound 0.00316 µM) 88.1% | viability, T/C (second compound 0.1 µM, first compound 0.01 µM) 77.9% | viability, T/C [3] 64.7% | viability, T/C [4] 55.5% | viability, T/C (second compound 0.316 µM, first compound 0.000316 µM) 83.2% | viability, T/C (second compound 0.316 µM, first compound 0.001 µM) 74.1% | viability, T/C (second compound 0.316 µM, first compound 0.00316 µM) 85.5% | viability, T/C (second compound 0.316 µM, first compound 0.01 µM) 66.8% | viability, T/C [5] 63% | viability, T/C [6] 47.1% | viability, T/C (second compound 1 µM, first compound 0.000316 µM) 78.4% | viability, T/C (second compound 1 µM, first compound 0.001 µM) 77.3% | viability, T/C (second compound 1 µM, first compound 0.00316 µM) 71.2% | viability, T/C (second compound 1 µM, first compound 0.01 µM) 55.5% | viability, T/C [7] 63.2% | viability, T/C [8] 40.4% | viability, T/C (second compound 3.16 µM, first compound 0.000316 µM) 81.5% | viability, T/C (second compound 3.16 µM, first compound 0.001 µM) 65.9% | viability, T/C (second compound 3.16 µM, first compound 0.00316 µM) 72.3% | viability, T/C (second compound 3.16 µM, first compound 0.01 µM) 60.6% | viability, T/C [9] 57.5% | viability, T/C [10] 43.4% | viability, T/C (second compound 10 µM, first compound 0.000316 µM) 99.5% | viability, T/C (second compound 10 µM, first compound 0.001 µM) 92.9% | viability, T/C (second compound 10 µM, first compound 0.00316 µM) 71.5% | viability, T/C (second compound 10 µM, first compound 0.01 µM) 66.2% | viability, T/C [11] 48.3% | viability, T/C [12] 41.9%
32.5 nM: IC50 (second compound 10 µM)
81 nM: IC50 (second compound 0.316 µM)
> 100 nM: IC50 (second compound 0.0316 µM) | IC50 (second compound 0.1 µM)
49.7 nM: IC50 (second compound 1 µM)
55 nM: IC50 (second compound 3.16 µM)

O=C(c1cc(Cc2n[nH]c(=O)c3ccccc23)ccc1F)N1CCN(C(=O)C2CC2)CC1 + Cc1c(S(C)(=O)=O)c(-c2cc(F)cc(N3CCN(c4ccc(NS(=O)(=O)c5ccc(NC(CCN6CCC(C(=O)OCCCP(=O)(O)O)CC6)CSc6ccccc6)c(S(=O)(=O)C(F)(F)F)c5)cc4)CC3)c2)c(-c2ccc(Cl)cc2)n1C(C)C
6940 nM: IC50 (second compound 0.0316 µM)
4350 nM: IC50 (second compound 1 µM)
8290 nM: IC50 (second compound 0.1 µM)
5440 nM: IC50 (second compound 10 µM)
5210 nM: IC50 (second compound 0.316 µM)
5160 nM: IC50 (second compound 3.16 µM)
inactive: viability, T/C [1] 84.8% | viability, T/C [2] 72.5% | viability, T/C (second compound 0.0316 µM, first compound 0.316 µM) 88% | viability, T/C (second compound 0.0316 µM, first compound 1 µM) 75.9% | viability, T/C (second compound 0.0316 µM, first compound 3.16 µM) 68.2% | viability, T/C (second compound 0.0316 µM, first compound 10 µM) 41.5% | viability, T/C [3] 90% | viability, T/C [4] 87.3% | viability, T/C (second compound 0.1 µM, first compound 0.316 µM) 79.1% | viability, T/C (second compound 0.1 µM, first compound 1 µM) 84% | viability, T/C (second compound 0.1 µM, first compound 3.16 µM) 70% | viability, T/C (second compound 0.1 µM, first compound 10 µM) 45.9% | viability, T/C [5] 82.8% | viability, T/C [6] 80.5% | viability, T/C (second compound 0.316 µM, first compound 0.316 µM) 90.2% | viability, T/C (second compound 0.316 µM, first compound 1 µM) 75.7% | viability, T/C (second compound 0.316 µM, first compound 3.16 µM) 61.8% | viability, T/C (second compound 0.316 µM, first compound 10 µM) 35.3% | viability, T/C [7] 73.7% | viability, T/C [8] 98.6% | viability, T/C (second compound 1 µM, first compound 0.316 µM) 69.1% | viability, T/C (second compound 1 µM, first compound 1 µM) 63.7% | viability, T/C (second compound 1 µM, first compound 3.16 µM) 64.7% | viability, T/C (second compound 1 µM, first compound 10 µM) 27.9% | viability, T/C [9] 75.7% | viability, T/C [10] 62.6% | viability, T/C (second compound 3.16 µM, first compound 0.316 µM) 61.8% | viability, T/C (second compound 3.16 µM, first compound 1 µM) 54.1% | viability, T/C (second compound 3.16 µM, first compound 3.16 µM) 67.6% | viability, T/C (second compound 3.16 µM, first compound 10 µM) 30.8% | viability, T/C [11] 90.6% | viability, T/C [12] 83.4% | viability, T/C (second compound 10 µM, first compound 0.316 µM) 95.8% | viability, T/C (second compound 10 µM, first compound 1 µM) 83.2% | viability, T/C (second compound 10 µM, first compound 3.16 µM) 69.1% | viability, T/C (second compound 10 µM, first compound 10 µM) 28.9%
